Assay results: paper PMC9716094, “Synthesis of novel amidines via one-pot three component reactions: Selective topoisomerase I inhibitors with antiproliferative properties” (Frontiers in Chemistry, 2022)

Tests used:
[1] = Cell viability assay (MTT) on normal cell line; format: cell-based; settings: human, MCF-10A mammary epithelial cells, 50 µM of compound;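 note: values are percent cell viability not percent inhibition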
Procedure: To study the effect of 4a-l and 5a-c on normal cell lines, a cell viability assay was done using the MCF-10A (human mammary gland epithelial) cell line ([Abdelbaset et al., 2019]; [Al-Wahaibi et al., 2020]). This study uses a concentration of 50 µM of the investigated compound for 4 days, after which cell viability is evaluated.
To study the effect of 4a-l and 5a-c on normal cell lines, a cell viability assay was done using the MCF-10A (human mammary gland epithelial) cell line ([Abdelbaset et al., 2019]; [Al-Wahaibi et al., 2020]). See Supplementary Appendix S1A.
MTT assay was carried out to study the effect of compounds on mammary epithelial cells (MCF-10A). The medium in which cells were propagated contained Dulbecco's modified Eagle's medium (DMEM)/ Ham's F-12 medium (1:1) supplemented with epidermal growth factor (20 ng/mL), hydrocortisone (500 ng/mL), insulin (10 μg/mL), 2 mM glutamine and 10% fetal calf serum. After every 2-3 days, the cells were passaged using trypsin ethylenediamine tetra acetic acid (EDTA). The cells were seeded at a density of 10^4 cells mL^-1 in flat-bottomed culture plates containing 96 wells each. After 24 h, medium was removed from the plates and the compounds in (in 0.1% DMSO) were added (in 200 μL medium to yield a final concentration of 0.1% v/v) to the wells of plates. A single compound was designated with four wells followed by incubation of plates for 96h at 37°C. After incubation, medium was removed completely from the plates followed by addition of MTT (0.4 mg/mL in medium) to each well and subsequent incubation of plates for 3h. MTT (along with the medium) was removed and DMSO (150μL) was added to each well of the culture plates, followed by vortexing and subsequent measurement of absorbance (at 540 nm) using microplate reader. The data are shown as percentage inhibition of proliferation in comparison with controls containing 0.1% DMSO.

[2] = system: Panc-1 (pancreas cancer cell line); assay: Antiproliferative assay, Panc-1; format: cell-based; settings: Homo sapiens, read-out: Antiproliferative activity IC50 ± SEM, Panc-1
Source text: (§1) See Supplementary Appendix S1A.
(§2) DMSO (0.1%) was used as control.

[3] = system: MCF-7 (breast cancer cell line); assay: Antiproliferative assay, MCF-7; format: cell-based; settings: Homo sapiens, MCF7; read-out: Antiproliferative activity IC50 ± SEM, MCF-7
Source text: as §1, §2

[4] = system: A-549 (epithelial cancer cell line); assay: Antiproliferative assay, A-549; format: cell-based; settings: Homo sapiens, A549; read-out: Antiproliferative activity IC50 ± SEM, A-549
Source text: as §1, §2

[5] = system: HT-29 (colon cancer cell line); assay: Antiproliferative assay, HT-29; settings: Homo sapiens, HT-29, read-out: Antiproliferative activity IC50 ± SEM, HT-29
Procedure: (§4) The IC50 of each compound was calculated using doxorubicin as the reference.
(§5) To explore the antiproliferative potential of compounds MTT assay was performed according to previously reported procedure using different cell lines to explore the antiproliferative potential of compounds propidium iodide fluorescence assay was performed using different cell lines. To calculate the total nuclear DNA, a fluorescent dye (propidium iodide, PI) is used which can attach to the DNA, thus offering a quick and precise technique. PI cannot pass through the cell membrane and its signal intensity can be considered as directly proportional to quantity of cellular DNA. Cells whose cell membranes are damaged or have changed permeability are counted as dead ones. The assay was performed by seeding the cells of different cell lines at a density of 3000-7500 cells/well (in 200µl medium) in culture plates followed by incubation for 24h at 37 °C in humidified 5% CO2/95% air atmospheric conditions. The medium was removed; the compounds were added to the plates at 10 µM concentrations (in 0.1% DMSO) in triplicates, followed by incubation for 48 h. DMSO (0.1%) was used as control. After incubation, medium was removed followed by the addition of PI (25 µl, 50µg/mL in water/medium) to each well of the plates. At -80 °C, the plates were allowed to freeze for 24 h, followed by thawing at 25 °C. A fluorometer (Polar-Star BMG Tech) was used to record the readings at excitation and emission wavelengths of 530 and 620 nm for each well. The percentage cytotoxicity of compounds was calculated using the following formula:

[6] = system: four cancer cell lines (A-549, MCF-7, Panc-1, HT-29); assay: Antiproliferative assay, average over the four cancer cell lines (GI50); settings: for Fold less potent than the reference doxorubicin (GI50): mean GI50 compared with doxorubicin; for IC50: read-out: Antiproliferative activity IC50, Average (mean GI50)
Procedure: as §4, §5

[7] = target: T1, recombinant human DNA topo I (Homo sapiens, UniProt P11387); assay: Topo I inhibitory assay (pBR322 relaxation); format: biochemical
T1 construct: purchased Topo GEN INC., USA
T1 sequence (P11387 1-765): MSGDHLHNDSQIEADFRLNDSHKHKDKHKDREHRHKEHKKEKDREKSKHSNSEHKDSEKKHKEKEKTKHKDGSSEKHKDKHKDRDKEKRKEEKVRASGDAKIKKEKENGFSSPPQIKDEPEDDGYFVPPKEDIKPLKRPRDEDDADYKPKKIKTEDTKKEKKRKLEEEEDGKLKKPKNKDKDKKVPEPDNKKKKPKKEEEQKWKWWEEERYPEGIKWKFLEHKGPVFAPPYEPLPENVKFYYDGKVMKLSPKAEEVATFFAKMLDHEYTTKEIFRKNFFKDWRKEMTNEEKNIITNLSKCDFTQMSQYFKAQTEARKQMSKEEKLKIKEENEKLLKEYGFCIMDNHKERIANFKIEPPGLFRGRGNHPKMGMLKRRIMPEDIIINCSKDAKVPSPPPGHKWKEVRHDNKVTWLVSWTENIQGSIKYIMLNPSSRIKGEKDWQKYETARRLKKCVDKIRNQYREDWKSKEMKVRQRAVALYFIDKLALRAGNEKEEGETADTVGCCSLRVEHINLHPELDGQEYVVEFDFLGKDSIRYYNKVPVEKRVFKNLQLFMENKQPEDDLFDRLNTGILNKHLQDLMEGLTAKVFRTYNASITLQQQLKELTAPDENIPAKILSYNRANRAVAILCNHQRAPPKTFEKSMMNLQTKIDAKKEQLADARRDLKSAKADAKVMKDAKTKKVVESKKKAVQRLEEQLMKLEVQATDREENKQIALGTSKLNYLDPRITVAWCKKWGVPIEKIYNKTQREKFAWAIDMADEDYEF
Procedure: (§3) All the tested compounds were dissolved in DMSO and the DNA topoisomerase I and II inhibitory activity of each compound was measured as follows according to previously reported methods. Mixture comprising of 100 ng supercoiled pBR322 plasmid DNA (Thermo Scientific, USA) and 0.2 ~ 1 unit of recombinant human DNA topo I (Topo GEN INC., USA) or topo IIα (USB Corp., USA) was incubated with or without the prepared compounds in the assay buffer (For topo I, 10 mM Tris-HCl (pH 7.9), 150 mM NaCl and 0.1% BSA, 0.1 mM spermidine and 5% glycerol; for topo II, 10 mM Tris-HCl (pH 7.9), 50 mM NaCl, 50 mM KCl, 5 mM MgCl2, 1 mM EDTA, 1 mM ATP and […] BSA) for 30 min at 37 ◦C. The reaction with final volume of 10 μL was stopped by adding the topo stop buffer (For topo I, 10% SDS solution containing 0.2% bromophenol blue, 0.2% xylene cyanol and 30% glycerol; for topo II, 7 mM EDTA). The reaction products were electrophoresed on 0.8% agarose gel at 50 V for 1 h with TAE electrophoresis buffer. The gels were stained in an EtBr solution (0.5 mg/mL) and visualized by transillumination with UV light and were quantitated using Alpha Tech ImagerTM (Alpha Innotech Corp., USA).

[8] = target: T2, topo IIα (Homo sapiens, UniProt P11388); assay: Topo IIα inhibitory assay (pBR322 relaxation); format: biochemical
T2 construct: purchased USB Corp., USA
T2 sequence (P11388 whole entry): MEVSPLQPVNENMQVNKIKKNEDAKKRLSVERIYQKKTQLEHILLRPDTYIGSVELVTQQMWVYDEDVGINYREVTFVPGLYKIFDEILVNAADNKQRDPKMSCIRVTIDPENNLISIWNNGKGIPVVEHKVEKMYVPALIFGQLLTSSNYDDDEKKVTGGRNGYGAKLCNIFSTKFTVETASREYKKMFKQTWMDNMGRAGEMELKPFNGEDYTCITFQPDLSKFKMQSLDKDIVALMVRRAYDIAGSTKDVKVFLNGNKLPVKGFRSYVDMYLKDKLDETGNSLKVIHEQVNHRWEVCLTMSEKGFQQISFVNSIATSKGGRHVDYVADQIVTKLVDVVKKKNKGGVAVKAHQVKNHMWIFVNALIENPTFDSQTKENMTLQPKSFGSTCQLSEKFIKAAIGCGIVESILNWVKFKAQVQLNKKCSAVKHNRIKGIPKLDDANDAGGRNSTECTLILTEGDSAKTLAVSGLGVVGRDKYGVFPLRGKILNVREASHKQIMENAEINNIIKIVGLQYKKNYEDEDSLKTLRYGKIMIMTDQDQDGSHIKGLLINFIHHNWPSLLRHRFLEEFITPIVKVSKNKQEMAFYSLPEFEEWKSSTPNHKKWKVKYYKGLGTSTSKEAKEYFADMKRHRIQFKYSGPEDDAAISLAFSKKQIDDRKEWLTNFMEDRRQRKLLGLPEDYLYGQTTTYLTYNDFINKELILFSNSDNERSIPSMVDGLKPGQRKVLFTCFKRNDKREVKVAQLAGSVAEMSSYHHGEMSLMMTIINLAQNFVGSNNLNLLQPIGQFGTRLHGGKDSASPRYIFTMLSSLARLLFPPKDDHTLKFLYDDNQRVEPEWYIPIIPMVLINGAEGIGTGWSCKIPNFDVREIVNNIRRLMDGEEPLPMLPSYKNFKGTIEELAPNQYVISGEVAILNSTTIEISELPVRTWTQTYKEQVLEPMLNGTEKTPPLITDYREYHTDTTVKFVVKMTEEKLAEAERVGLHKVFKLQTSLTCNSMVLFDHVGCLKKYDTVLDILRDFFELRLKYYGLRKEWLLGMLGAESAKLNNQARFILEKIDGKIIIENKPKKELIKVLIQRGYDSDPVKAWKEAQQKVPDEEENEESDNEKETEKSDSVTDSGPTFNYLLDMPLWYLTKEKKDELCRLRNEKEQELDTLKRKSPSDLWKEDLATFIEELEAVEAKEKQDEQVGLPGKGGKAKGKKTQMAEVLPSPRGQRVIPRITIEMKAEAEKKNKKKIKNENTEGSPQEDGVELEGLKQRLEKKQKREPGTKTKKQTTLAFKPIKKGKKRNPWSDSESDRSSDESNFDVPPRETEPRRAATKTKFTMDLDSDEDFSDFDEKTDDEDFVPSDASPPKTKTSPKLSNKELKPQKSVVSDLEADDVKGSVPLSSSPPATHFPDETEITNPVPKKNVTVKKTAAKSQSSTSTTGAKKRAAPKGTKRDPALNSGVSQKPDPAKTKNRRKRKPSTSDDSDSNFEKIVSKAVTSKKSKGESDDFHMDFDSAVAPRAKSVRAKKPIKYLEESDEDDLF
Procedure: as §3

IC50 [2]	IC50 [3]	IC50 [4]	IC50 [5]	Fold less potent than the reference doxorubicin (GI50) [6]	IC50 [6]	melting point	inhibition at 20 µM [8]	inhibition at 100 µM [8]	SMILES	viability at 4 days, 50 µM [1]	inhibition at 20 µM [7]	inhibition at 100 µM [7]
1.4 ± 0.2 µM	0.9 ± 0.1 µM	1.2 ± 0.1 µM	1 ± 0.1 µM		1.1 µM				COc1cccc2c1C(=O)c1c(O)c3c(c(O)c1C2=O)C[C@@](O)(C(=O)CO)C[C@@H]3O[C@H]1C[C@H](N)[C@H](O)[C@H](C)O1 [Doxorubicin, reference compound]			
1.6 ± 0.2 µM	1.4 ± 0.2 µM	1.1 ± 0.2 µM	1.2 ± 0.2 µM		1.3 µM	247 °C	23.1%	56.7%	COc1ccc2[nH]c(=O)cc(/N=C(\C3CCCC3)N3CCOCC3)c2c1 [Compound 4i, (E) 4-((Cyclopentyl(morpholino)methylene)amino)-6-methoxyquinolin-2(1H)-one]	89%	37.2%	74.9%
4.9 ± 0.3 µM	4.7 ± 0.4 µM	5.15 ± 0.3 µM	5.1 ± 0.3 µM		5 µM	360 °C			O=c1cc(/N=C(\C2CCCC2)N2CCN(/C(=N/c3cc(=O)[nH]c4ccccc34)C3CCCC3)CC2)c2ccccc2[nH]1 [Compound 5a, 4,4'-((1E,1′E)-(piperazine-1,4-diylbis(cyclopentylmethanylylidene))bis(azanylylid-ene))bis(quinolin-2(1H)-one)]	91%		
2.3 ± 0.2 µM	1.9 ± 0.2 µM	2.6 ± 0.2 µM	2.3 ± 0.2 µM		2.3 µM	226 °C			Cc1ccc2[nH]c(=O)cc(/N=C(\C3CCCC3)N3CCOCC3)c2c1 [Compound 4h, (E) 4-((Cyclopentyl(morpholino)methylene)amino)-6-methylquinolin-2(1H)-one]	91%		
							66%	83.7%	COc1cc([C@@H]2c3cc4c(cc3[C@@H](O[C@@H]3O[C@@H]5CO[C@@H](C)O[C@H]5[C@H](O)[C@H]3O)[C@H]3COC(=O)[C@H]23)OCO4)cc(OC)c1O [Etoposide, reference compound]			
3.1 ± 0.3 µM	2.9 ± 0.3 µM	3.7 ± 0.3 µM	3.5 ± 0.3 µM		3.3 µM	247 °C			O=c1cc(/N=C(\C2CCCC2)N2CCOCC2)c2cc(Cl)ccc2[nH]1 [Compound 4j, (E) 4-((Cyclopentyl(morpholino)methylene)amino)-6-chloroquinolin-2(1H)-one]	89%		

More lines, now with the values behind:

SMILES	IC50 [2]	IC50 [3]	IC50 [4]	IC50 [5]	Fold less potent than the reference doxorubicin (GI50) [6]	IC50 [6]	melting point	inhibition at 20 µM [8]	inhibition at 100 µM [8]	viability at 4 days, 50 µM [1]	inhibition at 20 µM [7]	inhibition at 100 µM [7]
O=c1cc(/N=C(\C2CCCC2)N2CCOCC2)c2ccccc2[nH]1 [Compound 4g, (E) 4-((Cyclopentyl(morpholino)methylene)amino)quinolin-2(1H)-one]	6.1 ± 0.6 µM	5.9 ± 0.6 µM	6.3 ± 0.6 µM	6.2 ± 0.6 µM	at least 6 fold	6.1 µM				89%		
Cn1c(=O)cc(/N=C(\C2CCCC2)N2CCCCC2)c2ccccc21 [Compound 4f, (E) 4-((Cyclopentyl(piperidin-1-yl)methylene)amino)-1-methylquinolin-2(1H)-one]	7.9 ± 0.8 µM	7.5 ± 0.8 µM	8 ± 0.8 µM	7.7 ± 0.8 µM		7.8 µM	142 °C			87%		
Cn1c(=O)cc(/N=C(\C2CCCC2)N2CCOCC2)c2ccccc21 [Compound 4l, (E) 4-((Cyclopentyl(morpholino)methylene)amino)-1-methylquinolin-2(1H)-one]	7.4 ± 0.7 µM	7.1 ± 0.7 µM	7.6 ± 0.7 µM	7.2 ± 0.7 µM	at least 6 fold	7.3 µM				89%		
COc1ccc2[nH]c(=O)cc(/N=C(\C3CCCC3)N3CCCCC3)c2c1 [Compound 4c, (E) 4-((Cyclopentyl(piperidin-1-yl)methylene)amino)-6-methoxyquinolin-2(1H)-one]	2.05 ± 0.2 µM	1.9 ± 0.2 µM	2.3 ± 0.2 µM	2.2 ± 0.2 µM		2.1 µM	250 °C			91%		
Cc1cccc2c(/N=C(\C3CCCC3)N3CCOCC3)cc(=O)[nH]c12 [Compound 4k, (E) 4-((Cyclopentyl(morpholino)methylene)amino)-8-methylquinolin-2(1H)-one]	4.2 ± 0.4 µM	4.05 ± 0.4 µM	4.6 ± 0.4 µM	4.1 ± 0.4 µM		4.2 µM	220 °C			91%		
CC[C@@]1(O)C(=O)OCc2c1cc1n(c2=O)Cc2cc3ccccc3nc2-1 [Camptothecin, reference compound]											40%	82.6%
Cc1ccc2[nH]c(=O)cc(/N=C(\C3CCCC3)N3CCN(/C(=N/c4cc(=O)[nH]c5ccc(C)cc45)C4CCCC4)CC3)c2c1 [Compound 5b, 4,4'-((1E,1′E)-(piperazine-1,4-diylbis(cyclopentylmethanylylidene))bis(azanylylid-ene))bis(6-methylquinolin-2(1H)-one)]	3.9 ± 0.3 µM	3.7 ± 0.3 µM	4.1 ± 0.3 µM	3.8 ± 0.3 µM		3.9 µM	355 °C			91%		
O=c1cc(/N=C(\C2CCCC2)N2CCCCC2)c2ccccc2[nH]1 [Compound 4a, (E) 4-((Cyclopentyl(piperidin-1-yl)methylene)amino)quinolin-2(1H)-one]	5.4 ± 0.5 µM	5.1 ± 0.5 µM	5.9 ± 0.5 µM	5.5 ± 0.5 µM		5.5 µM	210 °C			85%		
